Patent EP0125508A1, “Method for stabilizing a detrusor muscle while increasing detrusor muscle strength” (United Pharmaceuticals, Inc., priority 1983, dated 1984)
Where a name gives a salt, the structure may show the parent alone.

Columns and labels:
Unstable Detrusor [1] = test: Urodynamic studies, filling and voiding phase of the bladder (water cystometrogram), unstable detrusor; assay type: in vivo, women; settings: for Compliance (compliance of the detrusor muscle) / P (maxflow): bladder pressure at maximum urine flow rate / P (opening): bladder pressure at the patient's initiating urination / P (voiding): bladder voiding pressure / Q (max) / R.U. / V (1st sense): bladder urine volume at the patient's first sensation to urinate / V (Urge): bladder urine volume at the patient's urge to urinate / V (max): maximum bladder urine volume: unstable detrusor
Protocol: (§1) Urodynamic studies were performed on 20 women having a mean age of 28 + 7 years. These studies incorporated water cystometrogram, UPP, and isometric tests. Control urodynamic testing without use of thiphenamil hydrochloride was undertaken in all subjects. The effects of a single dose of 400 mg and a single dose of 800 mg of thiphenamil hydrochloride given orally were compared with the control value for each subject. Specifically, the measurements taken included bladder capacity, residual volume, maximum detrusor voiding pressure, and isometric contractility during bladder filling and at bladder capacity. '
Figure 3 illustrates the voiding phase of the cystometrogram for a subject having an unstable detrusor muscle. Spontaneous detrusor contractions are shown to precipitate voiding at a bladder urine volume of about 210 ml. The onset of voiding is associated with involuntary contractions (series of detrusor pressure peaks between 0 and 50 seconds) that are suppressed by increased EMG activity.

Stable Detrusor [2] = test: Isometric test: maximum isometric pressure as a function of bladder volume, stable detrusor; assay type: in vivo, women; settings: for I (100): maximum bladder isometric pressure / I (200): maximum bladder isometric pressure / I (300): maximum bladder isometric pressure / I (400): maximum bladder isometric pressure / I (500): maximum bladder isometric pressure / V (1st sense): bladder urine volume at the patient's first sensation to urinate / V (Max): maximum bladder urine volume / V (Urge): bladder urine volume at the patient's urge to urinate: stable detrusor; for I (100): maximum bladder isometric pressure: bladder urine volume 100 ml; for I (200): maximum bladder isometric pressure: bladder urine volume 200 ml; for I (300): maximum bladder isometric pressure: bladder urine volume 300 ml; for I (400): maximum bladder isometric pressure: bladder urine volume 400 ml; for I (500): maximum bladder isometric pressure: bladder urine volume 500 ml; for V (1st sense): bladder urine volume at the patient's first sensation to urinate / V (Max): maximum bladder urine volume / V (Urge): bladder urine volume at the patient's urge to urinate: isometric test
Protocol: as §1
(§2) Referring to Figure 1, data is shown taken from a subject having normal detrusor activity. The parameters measured include isometric detrusor pressure during bladder filling and while voiding under control conditions, EMG and . urine flow rate. Typical segments of a polygraph recording were obtained at a bladder volume of 100 ml (segment A), 200 ml (segment B) and the voiding at 30C ml (segment C). The parameters shown are detrusor pressure in cm H20, EMG (electromyogram) recording showing muscle electrical activity and urine flow rate.

Unstable Detrusor [3] = test: Isometric test: maximum isometric pressure as a function of bladder volume, unstable detrusor; assay type: in vivo, women; settings: for I (100): maximum isometric pressure: bladder urine volume 100 ml; for I (200): maximum isometric pressure: bladder urine volume 200 ml; for I (300): maximum isometric pressure: bladder urine volume 300 ml
Protocol: as §1

Hydrolysis in water = assay type: physicochemical
Stable Detrusor [4] = test: Urodynamic studies, filling and voiding phase of the bladder (water cystometrogram), stable detrusor; assay type: in vivo, women; settings: for Compliance (compliance of the detrusor muscle) / P (maxflow): bladder pressure at maximum urine flow rate / P (opening): bladder pressure at the patient's initiating urination / P (voiding): bladder voiding pressure / Q (max) / R.U. / V (1st sense): bladder urine volume at the patient's first sensation to urinate / V (Urge): bladder urine volume at the patient's urge to urinate / V (max): maximum bladder urine volume: stable detrusor
Protocol: as §1, §2

[5] = one subject with unstable detrusor, 400 mg dose 30 minutes prior to recording
[6] = isometric test, single oral dose 400 mg

## CCN(CC)CCSC(=O)C(c1ccccc1)c1ccccc1 [Thiphenamil Hydrochloride, thiphenamil hydrochloride]
Unstable Detrusor [1]; [5]
  detrusor instability (range of fluctuations of the EMG tracing, Figure 4): nearly eliminated
  height of the detrusor pressure peaks before voiding, Figure 4 versus Figure 3: general decrease in the height of those peaks
  pattern of detrusor instability (series of increasing detrusor pressure peaks leading up to voiding), Figure 4 versus Figure 3: shifted significantly to the right
  voiding (Figure 4): voluntary and complete
Unstable Detrusor [1]; single oral dose 400 mg
  Compliance (compliance of the detrusor muscle): 0.002±0.001 liters/cm H2O
  P (maxflow): bladder pressure at maximum urine flow rate: 44.0±4.4 (3) cm H2O
  P (opening): bladder pressure at the patient's initiating urination: 30±12 (4) cm H2O
  P (voiding): bladder voiding pressure: 47±7 (4) cm H2O
  Q (max): 15±1.9
  R.U.: 140±85 (2)
  V (1st sense): bladder urine volume at the patient's first sensation to urinate: 270±99 (3) ml
  V (Urge): bladder urine volume at the patient's urge to urinate: 345 ± 191 mL
  V (max): maximum bladder urine volume: 440±57 (2) ml
Unstable Detrusor [1]; single oral dose 800 mg
  Compliance (compliance of the detrusor muscle): 0.0027±0.0004 liters/cm H2O
  P (maxflow): bladder pressure at maximum urine flow rate: 55.3±7.0 (3) cm H2O
  P (opening): bladder pressure at the patient's initiating urination: 44±11.3 (2) cm H2O
  P (voiding): bladder voiding pressure: 52.7±6.4 (3) cm H2O
  Q (max): 18.0±1.8 (3)
  R.U.: 27.5±3.5 (3)
  V (1st sense): bladder urine volume at the patient's first sensation to urinate: 275±35 (3) ml
  V (Urge): bladder urine volume at the patient's urge to urinate: 325±35 (2) ml
  V (max): maximum bladder urine volume: 499±177 (3) ml
Stable Detrusor [2]; one subject with normal detrusor, 400 mg dose, bladder volume 100 ml and 200 ml
  detrusor pressures in segments A and B (Figure 2 versus Figure 1): considerably higher
Stable Detrusor [2]; significant increase from control 36.1 + 26.9, dose not stated in the sentence (matches I (100), 400 mg, Table II)
  isometric detrusor pressure during the filling phase of the bladder: 63.0 + 27.1 cm 1120
Stable Detrusor [2]; single oral dose 400 mg
  I (100): maximum bladder isometric pressure: 63.0±27.1 (13) cm H2O
  I (200): maximum bladder isometric pressure: 51.9±26.0 (14) cm H2O
  I (300): maximum bladder isometric pressure: 50.3±25.8 (12) cm H2O
  I (400): maximum bladder isometric pressure: 46.6±19.5 (10) cm H2O
  I (500): maximum bladder isometric pressure: 30.1±15.6 (8) cm H2O
  V (1st sense): bladder urine volume at the patient's first sensation to urinate: 358±106 (18) ml
  V (Max): maximum bladder urine volume: 544±151 (11) ml
  V (Urge): bladder urine volume at the patient's urge to urinate: 467±94 (18) ml
Stable Detrusor [2]; single oral dose 800 mg
  I (100): maximum bladder isometric pressure: 74±34.6 (6) cm H2O
  I (200): maximum bladder isometric pressure: 65.0±37.8 (7) cm H2O
  I (300): maximum bladder isometric pressure: 63.4±26.2 (7) cm H2O
  I (400): maximum bladder isometric pressure: 50.0±27.5 (6) cm H2O
  I (500): maximum bladder isometric pressure: 34.0±14.4 (2) cm H2O
  V (1st sense): bladder urine volume at the patient's first sensation to urinate: 253.3±96.9 (6) ml
  V (Max): maximum bladder urine volume: 425±82 (10) ml
  V (Urge): bladder urine volume at the patient's urge to urinate: 385±74.6 (7) ml
Unstable Detrusor [3]; single oral dose 400 mg
  I (100): maximum isometric pressure: 73±39 (14) cm H2O
  I (200): maximum isometric pressure: 44±14 (3) cm H2O
  I (300): maximum isometric pressure: 75±5 (2) cm H2O
Unstable Detrusor [3]; single oral dose 800 mg
  I (100): maximum isometric pressure: 78±53 cm H2O
  I (200): maximum isometric pressure: 62±57 cm H2O
  I (300): maximum isometric pressure: 96 (1) cm H2O
Unstable Detrusor [3]; [6]
  V (1st sense): bladder urine volume at the patient's first sensation to urinate: 270+99 (4) ml
  V (Urge): bladder urine volume at the patient's urge to urinate: 355±53 (4) ml
Unstable Detrusor [3]; isometric test, single oral dose 800 mg
  V (Urge): bladder urine volume at the patient's urge to urinate: 423 ± 27.5 mL
Hydrolysis in water
  stability in water (hydrolysis): slowly hydrolizes in water
Stable Detrusor [4]; decrease from control 41.3 + 15.3, dose not stated in the sentence (matches P (voiding), 400 mg, Table 1)
  detrusor muscle contractility: 37.2 + 16.0 cm H20
Stable Detrusor [4]; single oral dose 400 mg
  Compliance (compliance of the detrusor muscle): 0.002±0.001 liters/cm H2O
  P (maxflow): bladder pressure at maximum urine flow rate: 37.9±9.1 (19) cm H2O
  P (opening): bladder pressure at the patient's initiating urination: 25.4±13.3 (19) cm H2O
  P (voiding): bladder voiding pressure: 37.2±16 (20) cm H2O
  Q (max): 16.7±4.4 (21)
  R.U.: 132.3±121.4 (18)
  V (1st sense): bladder urine volume at the patient's first sensation to urinate: 314±99 (19) ml
  V (Urge): bladder urine volume at the patient's urge to urinate: 551±195 (19) ml
  V (max): maximum bladder urine volume: 581+155 (19) ml
Stable Detrusor [4]; single oral dose 800 mg
  Compliance (compliance of the detrusor muscle): 0.0025±0.003 liters/cm H2O
  P (maxflow): bladder pressure at maximum urine flow rate: 49.5±14.8 (11) cm H2O
  P (opening): bladder pressure at the patient's initiating urination: 39.1±12.2 (7) cm H2O
  P (voiding): bladder voiding pressure: 65.1±19.1 (11) cm H2O
  Q (max): 27.7±9.0 (8)
  R.U.: 95.0±72.2 (9)
  V (1st sense): bladder urine volume at the patient's first sensation to urinate: 298±67.6 (11) ml
  V (Urge): bladder urine volume at the patient's urge to urinate: 381±61 (11) ml
  V (max): maximum bladder urine volume: 436±165 (11) ml
Stable Detrusor [4]; versus control
  bladder capacity: no significant increase
